In general, Ki refers to the equilibrium dissociation constant of an inhibitor or competing ligand from its target. Low values mean higher affinity, high ones lower affinity. Usually inhibition stands for the drop in the measured response relative to a control, in per cent. Read a low inhibition as a response near the control. As a reminder, the IC50 is the concentration that inhibits the measured activity by half. The low end stands for inhibition by little substance, the high end for a need for much substance.

Data set [1] concerns the target T1, 5-hydroxytryptamine receptor 7 (Homo sapiens, UniProt P34969). Briefly: Displacement of [3H]5-CT from human 5HT7 receptor expressed in HEK293 cells after 1 hr by liquid scintillation counting. The data set is classed as cell-based.
The target in data set [2] is Sodium-dependent serotonin transporter (Rattus norvegicus) (UniProt P31652). Briefly: Displacement of [3H]5-HT from of SERT in rat midbrain homogenates at 1 uM after 5 mins by scintillation counting. Type of data set: tissue-based. In general terms: Displacement assays read how much labelled ligand stays bound in the presence of the test substance.
Chain of Sodium-dependent serotonin transporter (Rattus norvegicus) (P31652 whole entry): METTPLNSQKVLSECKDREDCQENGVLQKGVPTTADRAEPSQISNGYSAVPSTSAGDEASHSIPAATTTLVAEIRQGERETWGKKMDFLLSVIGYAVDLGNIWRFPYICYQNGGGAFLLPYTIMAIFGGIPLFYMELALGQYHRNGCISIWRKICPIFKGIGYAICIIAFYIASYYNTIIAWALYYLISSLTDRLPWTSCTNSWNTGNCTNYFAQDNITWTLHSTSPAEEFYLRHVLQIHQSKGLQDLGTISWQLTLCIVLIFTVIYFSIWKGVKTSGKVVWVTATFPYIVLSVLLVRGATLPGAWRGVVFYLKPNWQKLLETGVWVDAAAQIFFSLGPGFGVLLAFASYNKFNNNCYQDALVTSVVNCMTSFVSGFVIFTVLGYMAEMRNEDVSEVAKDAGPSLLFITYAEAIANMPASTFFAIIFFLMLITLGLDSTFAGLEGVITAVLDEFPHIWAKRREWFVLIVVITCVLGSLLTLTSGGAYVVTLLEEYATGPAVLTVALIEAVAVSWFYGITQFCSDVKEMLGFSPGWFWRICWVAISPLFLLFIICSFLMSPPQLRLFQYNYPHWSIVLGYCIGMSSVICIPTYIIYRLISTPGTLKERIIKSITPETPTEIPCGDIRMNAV
The target is the same in data set [3]. Briefly: Displacement of [3H]5-HT from of SERT in rat midbrain homogenates at 10 uM after 5 mins by scintillation counting. The data set is classed as tissue-based.
In data set [4] the target is T1, 5-hydroxytryptamine receptor 7. Briefly: Partial agonist activity at human 5HT7 receptor expressed in HEK293 cells assessed as effect on cAMP production after 20 mins. Type of data set: functional, cell-based. A general note: Cyclic AMP is a second messenger, typically raised through Gs and lowered through Gi signalling.
Data set [5] has as its system Mus musculus. Description: Antidepressant activity in albino mouse assessed as reduction of immobility time at 10 to 20 mg/kg, ip measured up to 4 mins by forced swimming test. The data set is classed as functional, organism-based.
Data set [6] relates to Mus musculus. Briefly: Antidepressant activity in albino mouse assessed as reduction of immobility time at 20 mg/kg, ip qd for 15 days by forced swimming test. The data set is classed as functional, organism-based. Further details: dose 20 mg/kg.
Data set [7] addresses T1, 5-hydroxytryptamine receptor 7. Briefly: Antagonist activity at human 5HT7 receptor expressed in HEK293 cells assessed as inhibition of serotonin-induced cAMP production after 20 mins. The data set is classed as functional, cell-based.
The target is the same in data set [8]. Briefly: Partial antagonist activity at human 5HT7 receptor expressed in HEK293 cells assessed as inhibition of serotonin-induced cAMP production after 20 mins. The data set is classed as functional, cell-based.
The test system of data set [9] is Mus musculus. Briefly: Antidepressant activity in albino mouse assessed as reduction of immobility time at 10 mg/kg, ip qd for 15 days by forced swimming test. The data set is classed as functional, organism-based. The arrangement: dose 10 mg/kg.
In data set [10] the target is T2, 5-hydroxytryptamine receptor 1A (Homo sapiens, UniProt P08908).
T2 sequence (P08908 whole entry): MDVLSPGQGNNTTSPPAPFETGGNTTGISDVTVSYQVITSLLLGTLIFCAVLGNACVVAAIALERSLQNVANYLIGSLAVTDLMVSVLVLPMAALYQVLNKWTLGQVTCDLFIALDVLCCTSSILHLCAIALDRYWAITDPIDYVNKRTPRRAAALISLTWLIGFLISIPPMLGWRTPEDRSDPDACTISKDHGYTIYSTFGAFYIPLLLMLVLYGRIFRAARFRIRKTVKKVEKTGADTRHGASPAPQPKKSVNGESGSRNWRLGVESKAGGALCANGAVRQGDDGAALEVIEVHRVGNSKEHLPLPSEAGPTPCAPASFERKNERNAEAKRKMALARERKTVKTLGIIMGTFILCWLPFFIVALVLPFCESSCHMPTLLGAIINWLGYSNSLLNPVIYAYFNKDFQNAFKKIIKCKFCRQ
Briefly: Binding affinity to 5HT1A receptor.

Data set [11] addresses Sodium-dependent serotonin transporter (Rattus norvegicus, UniProt P31652). Briefly: Displacement of [3H]5-HT from of SERT in rat midbrain homogenates after 5 mins by scintillation counting. Type of data set: tissue-based.
Data set [12] concerns Mus musculus. Description: Toxicity in albino mouse assessed as increase in locomotor activity at 10 mg/kg, ip. As to conditions: in vivo. The arrangement: dose 10 mg/kg, route intraperitoneal. The data set is classed as organism-based.
In data set [13] the test system is Mus musculus. Description: Antidepressant activity in albino mouse assessed as reduction of immobility time at 10 mg/kg, ip measured for 4 mins by forced swimming test. Type of data set: functional, organism-based. The arrangement: dose 10 mg/kg.
Data set [14] addresses T1, 5-hydroxytryptamine receptor 7. Briefly: Inverse agonist activity at human 5HT7 receptor expressed in HEK293 cells assessed as effect on cAMP production after 20 mins. Type of data set: functional, cell-based.

Activity calls are given as the source filed them. The rule behind the calls is not given here. Bounds are passed on as bounds.

Chain of Sodium-dependent serotonin transporter (P31652 whole entry): as the sequence (P31652 whole entry) above
T1 sequence (P34969 whole entry): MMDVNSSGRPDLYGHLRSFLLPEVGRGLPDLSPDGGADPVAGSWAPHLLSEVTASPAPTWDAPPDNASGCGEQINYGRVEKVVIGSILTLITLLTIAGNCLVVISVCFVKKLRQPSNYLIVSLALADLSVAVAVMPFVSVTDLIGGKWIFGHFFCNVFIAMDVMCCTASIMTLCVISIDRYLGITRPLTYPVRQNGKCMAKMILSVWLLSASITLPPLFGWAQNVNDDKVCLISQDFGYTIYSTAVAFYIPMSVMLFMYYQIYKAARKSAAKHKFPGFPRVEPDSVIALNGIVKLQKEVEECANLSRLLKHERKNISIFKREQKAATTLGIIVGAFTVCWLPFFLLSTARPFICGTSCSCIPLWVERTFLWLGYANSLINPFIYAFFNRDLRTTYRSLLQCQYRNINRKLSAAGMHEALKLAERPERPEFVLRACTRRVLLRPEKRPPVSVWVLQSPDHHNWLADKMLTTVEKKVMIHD

For `O=C(CCN[C@H]1CCN(c2ccc([N+](=O)[O-])cc2)C1)c1csc2ccccc12`, the Ki in data set [1] was above 100 µM. Besides, the inhibition amounted to 0% in [2] and 36.6% in [3].

In the case of `O=[N+]([O-])c1ccc(N2CCCN(CCC(O)c3csc4ccccc34)CC2)c(C(F)(F)F)c1` (stereo unspecified), the outcome in data set [4] was Active. For the same compound, in [1], the affinity, expressed as Ki, was 8.71 µM. The figures for the inhibition in data set [2] and in data set [3] were 0% and 36%, respectively.

Consider `O=C(CCN1CCC(N2CCOCC2)CC1)c1csc2ccccc12`, for which the Ki in [1] is 53.7 µM. The results for the inhibition in data set [2] and in data set [3] were 11.1% and 30.2%, respectively.

On to `CNCCC(Oc1ccc(C(F)(F)F)cc1)c1ccccc1` (stereo unspecified), for which the result in the data set with Mus musculus [5] was inactive. The result in the data set on Mus musculus [6] was Active.

As to `Nc1ccc(N2CCN(CCC(=O)c3csc4ccccc34)CC2)cc1`, the affinity in data set [1], expressed as Ki, was 14.1 µM.

Consider `O=C(CCNC1CCN(c2ccc([N+](=O)[O-])cc2)CC1)c1csc2ccc(F)cc12`, for which the result in data set [7] and in data set [8] was Active. Also, affinity in data set [1] was put at a Ki of 4.79 µM. In addition, the inhibition in [2] turned out to be 3.1%; in [3] it was 35%.

On to `O=C(CCN1CCN(c2ccc([N+](=O)[O-])cc2)CC1)c1csc2ccc(F)cc12`, for which, in data set [1], the Ki is 91.2 µM. The inhibition came out at 0% in data set [2] and 16.3% in data set [3].

`N#Cc1ccc(N2CCN(CCC(=O)c3csc4ccccc34)CC2)cc1` had a Ki in data set [1] above 100 µM. The inhibition in [2] is 5.4%; in [3], 38.2%.

On to `O=C(CCN[C@H]1CCN(c2ccc([N+](=O)[O-])cc2C(F)(F)F)C1)c1csc2ccccc12`, for which the outcome in the data set on Mus musculus [9] was Active. Also, the Ki in [1] is above 100 µM; in data set [10], 0.0501 µM. In [11], this compound showed an IC50 of 7.02 µM. In addition, the inhibition was determined as 28.4% in data set [2] and 97.9% in data set [3]. Moreover, the Activity entry with Mus musculus [12] is given as “Non-toxic”.

With `O=C(CCN1CC[C@@H](Nc2ccc([N+](=O)[O-])cc2)C1)c1csc2ccccc12`, the Ki in data set [1] was above 100 µM. Also, the inhibition turned out to be 17.9% in data set [2] and 76.5% in data set [3].

As for `OC(CCN1CCC(N2CCOCC2)CC1)c1csc2ccccc12` (stereo unspecified), the Ki in data set [1] was 27.5 µM. In addition, the inhibition was 2.2% in data set [2] and 63.6% in data set [3].

For `O=C(CCN1CCN(c2ccc([N+](=O)[O-])cc2)CC1)c1csc2ccccc12`, in data set [1], the Ki is above 100 µM. Moreover, the inhibition stood at 2.1% in [2] and 33.2% in data set [3].

On to `N#Cc1ccc(N2CCC(NCCC(=O)c3csc4ccccc34)CC2)cc1`, for which, in data set [4], the result was Active. In data set [1], this compound gave a Ki of 7.24 µM.

Regarding `N#Cc1ccc(N2CCCN(CCC(O)c3csc4ccccc34)CC2)cc1` (stereo unspecified), the outcome (with Mus musculus [9]; in data set [7]; in the data set with Mus musculus [13]; in data set [14]) was Active. In addition, the Ki in data set [1] was 0.263 µM; in data set [10] it was 3.16 µM. In [11], this compound registered a half-maximal inhibitory concentration (IC50) of 57.8 µM. The inhibition in data set [2] turned out to be 19.7%; in [3], 36.7%. Further, the Activity entry in the data set with Mus musculus [12] was “Non-toxic”.

Turning to `N#Cc1ccc(N2CC[C@H](NCCC(=O)c3csc4ccccc34)C2)cc1`, the Ki in data set [1] is above 100 µM. In addition, the inhibition worked out at 0% in data set [2] and 45.6% in [3].

For `O=C(CCN1CCCN(c2ccc([N+](=O)[O-])cc2C(F)(F)F)CC1)c1csc2ccccc12`, the inhibitory constant (Ki) in [1] was above 100 µM.

`O=[N+]([O-])c1ccc(N2CCC(NCCC(O)c3csc4ccccc34)C2)cc1` (single isomer, unassigned) showed an inhibition constant Ki in data set [1] above 100 µM. Also, the inhibition in data set [2] was 28.1%; in data set [3], 49.2%.

In data set [1], `O=C(CCN[C@@H]1CCN(c2ccc([N+](=O)[O-])cc2)C1)c1csc2ccccc12` gave a Ki above 100 µM. The inhibition was found to be 9% in [2] and 45.4% in data set [3].

In data set [1], `O=C(CCN1CCCN(c2cnc3ccccc3n2)CC1)c1csc2ccccc12` had a Ki of 9.55 µM. For the same compound, the inhibition turned out to be 23.8% in data set [2] and 58% in [3].

As to `O=C(CCNC1CCN(c2ccc([N+](=O)[O-])cc2C(F)(F)F)CC1)c1csc2ccccc12`, the outcome in data set [4] and in data set [7] was Active. The compound also had an inhibitory constant (Ki) in data set [1] of 9.12 µM. Moreover, the inhibition in data set [2] was found to be 26.9%; in data set [3] it was 62.8%.

As for `N#Cc1ccc(N2CCCN(CCC(=O)c3csc4ccccc34)CC2)cc1`, the Ki in data set [1] was 15.1 µM. Moreover, the inhibition in data set [2] came out at 1.2%; in data set [3] it was 63.1%.

`N#Cc1ccc(N2CCC(NCCC(O)c3csc4ccccc34)CC2)cc1` (stereo unspecified): the result (with Mus musculus [9]; in data set [14]) was Active. In addition, the figures for the Ki in data set [1] and in data set [10] were 1.66 µM and 0.158 µM, respectively. The compound further showed a concentration for half-maximal inhibition (IC50) in [11] of 3.66 µM. For the same compound, the inhibition in data set [2] turned out to be 53.1%; in [3], 80.4%. Further, the Activity result with Mus musculus [12] is reported as “Non-toxic”.

With `N#Cc1ccc(N2CCN(CCC(O)c3csc4ccccc34)CC2)cc1` (stereo unspecified), the outcome in data set [7] and in data set [14] was Active. In data set [1], this compound had a Ki of 12.6 µM. For the same compound, the inhibition came out at 43.5% in data set [2] and 57.7% in data set [3].
